# Measured values as given in patent publication US10479792B2, “Compounds” (GlaxoSmithKline Intellectual Property Development Limited, priority 2015, dated 2019).
# Experiments:
# Format in all cases: cell-based
# Leishmania donovani [1] = assay: Intramacrophage Leishmania donovani assay (Assay 1), average number of amastigotes per cell (potency readout); conditions: THP-1, 96 h, amastigotes in PMA-differentiated THP-1 macrophages, 96 h incubation, read-out: pEC50 value against Leishmania donovani (converted)
# Experimental: Assay 1. Intramacrophage Leishmania donovani Assay
# The intramacrophage Leishmania assay was performed using a modified version of the method described in De Rycker et al. (Antimicrob Agents Chemother. 2013 July; 57(7):2913-22. Comparison of a high-throughput high-content intracellular Leishmania donovani assay with an axenic amastigote assay. De Rycker M, Hallyburton I, Thomas J, Campbell L, Wyllie S, Joshi D, Cameron S, Gilbert I H, Wyatt P G, Frearson J A, Fairlamb A H, Gray D W.). Procedure: 350 nl of compound was pre-dispensed into 384 well sterile intermediary plates. For single point screening, amphotericin B was added to all wells of column 24 as a positive control (final concentration 2 μM) and DMSO to column 23. For potency determinations, ten-point, one in three dilution curves were created with the highest concentration being 50 μM and on each plate a control curve of amphotericin B was included. Controls were as follows: columns 11 and 12: DMSO, columns 23 and 24: amphotericin B (final concentration 2 μM). To the intermediary plates, 35 μl of THP-1 media was added and plates were shaken for >5 min to ensure complete mixing. THP-1 cells (8,000 per well, 50 μl) were plated into black clear-bottom 384 well plates (Corning) in presence of 20 nM PMA. After 20 min at RT, the plates were incubated at 37° C. under 5% CO2 in a humidified incubator for 75 h. The cells were then washed with […] sterile phosphate buffered saline (PBS) supplemented with 1 mM CaCl2, 0.5 mM MgCl2, 0.1% (w/v) bovine serum albumin (PBS-A) and amastigotes were added to all wells at a multiplicity of infection of 5 (40,000 amastigotes per well). After 40 min at RT, plates were returned to the incubator. Amastigotes were incubated in the presence of THP-1 macrophages for 16 h. Any remaining extracellular amastigotes were subsequently removed with an overflow wash of 1 mL PBS-A per well (wash buffer is being aspirated from the top of the well as it is being dispensed) followed by addition of 25 μl of the compound pre-dilutions using a Fluidx Ipette-pro pipetting station. The final dilution of each compound was 200-fold. Plates were incubated for 96 h and then washed (250 μl PBS-A) and fixed (4% (v/v) formaldehyde-PBS, 30 min, RT). After fixation, the wells were washed with 250 μl PBS, stained (10 μg/mL DAPI, 0.4 μg mL-1 HCS Cellmask Deep Red in PBS+0.1% (v/v) Triton X-100, 30 min, RT) and washed with 250 μl PBS. Finally, PBS+0.05% (v/v) thimerosal was added to the wells, the plates were sealed and imaged on a high-content microscope (GE IN Cell 2000) using a 10× objective. Image analysis was carried out with GE IN Cell Analyzer 1000 Workstation using the “Multi Target Analysis” module. Settings for segmentation were as follows: nuclei: minimum area: 142.384 μm2, sensitivity: 81, method: top-hat; cells: characteristic area: 2500 μm2, sensitivity: 60, method: multiscale top-hat; organelles (amastigotes): granule size 1-3, 3 scales, sensitivity: 90, detection in entire cell. For each well, i) THP-1 cell count (cytotoxicity readout) and ii) average number of amastigotes per cell (potency readout) were calculated, both in terms of pEC50 values.
# THP-1 cells = assay: Leishmania donovani intracellular assay (Assay 5), THP-1 cytotoxicity; conditions: human, 96 h incubation, read-out: cytotoxicity against THP-1 cells, pEC50 (converted)
# Experimental: (§1) Assay 5. Leishmania donovani Intracellular Assay
# (§2) Compounds were dispensed into black 384-well assay plates (Greiner) by acoustic dispensing (LabCyte ECHO). For potency determinations, eleven-point, one in three dilution curves were generated, with a top concentration of 50 μM. THP-1 human monocytes cells were dispensed in T225 tissue culture flasks and differentiated using 30 nM of PMA, after 24 hours they were infected overnight using Leishmania donovani expressing Green Fluorescent Protein (eGFP) amastigotes in the same T225 tissue culture flasks at a multiplicity of infection of 10. Next, any remaining free amastigotes were washed away with PBS and the infected THP-1 cells were harvested by trypsinisation. The infected cells were then plated into 384-well plates containing the compounds to be tested, at 3000 cells per well in RPMI media with 2% FBS and 25 mM Sodium bicarbonate. After 96 h incubation at 37° C. in presence of 5% CO2, the plates were fixed with 4% formaldehyde for 30 minutes, washed with PBS and stained with 0.1 mg/mL of DAPI for 30 minutes and washed again with PBS. The plates were imaged on a Perkin Elmer Opera high-content imaging system using a 20× air objective with two expositions, one for DAPI stain and other for eGFP. Images were analysed using the Acapella building blocks system (Perkin Elmer). The image analysis algorithm first identified the THP-1 nuclei followed by demarcation of the cytoplasm and identification of intracellular amastigotes. This algorithm reported mean number of parasites per THP-1 cell, the percentage of infected THP-1 cells and the total number of THP-1 cells.
# Leishmania donovani [2] = assay: Leishmania donovani intracellular assay (Assay 5); conditions: THP-1, 96 h, eGFP amastigotes in THP-1 cells, 96 h incubation, read-out: pEC50 value against Leishmania donovani (converted)
# Experimental: as §1, §2
SMILES,EC50 (Leishmania donovani [1]),EC50 at 96 h (THP-1 cells),EC50 (Leishmania donovani [2])
"O=C(Nc1ccc(F)c(-c2ccn3ccnc3n2)c1)N1CCCC1 [Example 16, N-(4-fluoro-3-(imidazo[1,2-a]pyrimidin-7-yl)phenyl)pyrrolidine-1-carboxamide]",12.6 to 20 µM,12.6 to 50.1 µM,12.6 to 39.8 µM
"C[C@@H]1CCCN1C(=O)Nc1ccc(F)c(-c2ccn3c(N4CCOCC4)cnc3n2)c1 [Example 33, N-(4-fluoro-3-(3-morpholinoimidazo[1,2-a]pyrimidin-7-yl)phenyl)-2-methylpyrrolidine-1-carboxamide]",0.251 to 10 µM,,0.126 to 10 µM
"CCc1cc(-c2cc(NC(=O)N3CCCC3)ccc2F)nc2ncc(N3CCOCC3)n12 [Example 13, N-(3-(5-ethyl-3-morpholinoimidazo[1,2-a]pyrimidin-7-yl)-4-fluorophenyl)pyrrolidine-1-carboxamide]",0.251 to 10 µM,,0.126 to 10 µM
"O=C(Nc1cccc(-c2ccn3c(N4CCOCC4)cnc3n2)c1)N1CCCC1 [Example 1, N-(3-(3-morpholinoimidazo[1,2-a]pyrimidin-7-yl)phenyl)pyrrolidine-1-carboxamide]",0.251 to 10 µM,,0.126 to 10 µM
"O=C(Nc1ccc(F)c(-c2ccn3c(-c4ccc(CN5CCOCC5)cc4)cnc3n2)c1)N1CCCC1 [Example 21, N-(4-fluoro-3-(3-(4-(morpholinomethyl)phenyl)imidazo[1,2-a]pyrimidin-7-yl)phenyl)pyrrolidine-1-carboxamide]",0.251 to 10 µM,,0.126 to 10 µM
"O=C(Nc1ccc(F)c(-c2ccn3c(-c4cnccn4)cnc3n2)c1)N1CCCC1 [Example 27, N-(4-fluoro-3-(3-(pyrazin-2-yl)imidazo[1,2-a]pyrimidin-7-yl)phenyl)pyrrolidine-1-carboxamide]",0.251 to 10 µM,,0.126 to 10 µM
"Cc1nc(C)c(C(=O)Nc2ccc(F)c(-c3ccn4c(N5CCOCC5)cnc4n3)c2)o1 [Example 39, N-(4-fluoro-3-(3-morpholinoimidazo[1,2-a]pyrimidin-7-yl)phenyl)-2,4-dimethyloxazole-5-carboxamide]",0.251 to 10 µM,,0.126 to 10 µM
"O=C(Nc1ccc(F)c(-c2ccn3c(N4CCNCC4)cnc3n2)c1)N1CCCC1 [Example 32, N-(4-fluoro-3-(3-(piperazin-1-yl)imidazo[1,2-a]pyrimidin-7-yl)phenyl)pyrrolidine-1-carboxamide]",> 50.1 µM,,12.6 to 39.8 µM
"O=C(Nc1ccc(F)c(-c2cc(C(=O)N3CCCC3)n3ccnc3n2)c1)N1CCCC1 [Example 50, N-(4-fluoro-3-(5-(pyrrolidine-1-carbonyl)imidazo[1,2-a]pyrimidin-7-yl)phenyl)pyrrolidine-1-carboxamide]",> 50.1 µM,,12.6 to 39.8 µM
"CC1CN(C(=O)Nc2ccc(F)c(-c3ccn4c(N5CCOCC5)cnc4n3)c2)C1 [Example 49, N-(4-fluoro-3-(3-morpholinoimidazo[1,2-a]pyrimidin-7-yl)phenyl)-3-methylazetidine-1-carboxamide]",12.6 to 20 µM,,0.126 to 10 µM
"Cc1cn2c(N3CCOCC3)cnc2nc1-c1cccc(NC(=O)N2CCCC2)c1 [Example 14, N-(3-(6-methyl-3-morpholinoimidazo[1,2-a]pyrimidin-7-yl)phenyl)pyrrolidine-1-carboxamide]",> 50.1 µM,,12.6 to 39.8 µM
"C[C@@H]1CN(c2cnc3nc(-c4cc(NC(=O)N5CCCC5)ccc4F)ccn23)C[C@H](C)O1 [Example 30, N-(3-(3-((2S,6R)-2,6-dimethylmorpholino)imidazo[1,2-a]pyrimidin-7-yl)-4-fluorophenyl)pyrrolidine-1-carboxamide]",0.251 to 10 µM,,0.126 to 10 µM
"CC(C)(C)OC(=O)N1CCOCC1c1cnc2nc(-c3cc(NC(=O)N4CCCC4)ccc3F)ccn12 (centres unmarked) [Example 44, tert-butyl 3-(7-(2-fluoro-5-(pyrrolidine-1-carboxamido)phenyl)imidazo[1,2-a]pyrimidin-3-yl)morpholine-4-carboxylate]",0.251 to 10 µM,,0.126 to 10 µM
"Cc1cc(-c2cc(NC(=O)N3CCCC3)ccc2F)nc2ncc(N3CCOCC3)n12 [Example 12, N-(4-fluoro-3-(5-methyl-3-morpholinoimidazo[1,2-a]pyrimidin-7-yl)phenyl)pyrrolidine-1-carboxamide]",0.251 to 10 µM,,0.126 to 10 µM
"O=C(Nc1ccc(F)c(-c2ccn3c(N4CCOCC4)cnc3n2)c1)N1CC(F)(F)C1 [Example 24, 3,3-difluoro-N-(4-fluoro-3-(3-morpholinoimidazo[1,2-a]pyrimidin-7-yl)phenyl)azetidine-1-carboxamide]",0.251 to 10 µM,,0.126 to 10 µM
"CC1(C)CN(c2cnc3nc(-c4cc(NC(=O)N5CCCC5)ccc4F)ccn23)CCO1 [Example 41, N-(3-(3-(2,2-dimethylmorpholino)imidazo[1,2-a]pyrimidin-7-yl)-4-fluorophenyl)pyrrolidine-1-carboxamide]",0.251 to 10 µM,,0.126 to 10 µM
"CN1CCN(c2cnc3nc(-c4cc(NC(=O)N5CCCC5)ccc4F)ccn23)CC1 [Example 36, N-(4-fluoro-3-(3-(4-methylpiperazin-1-yl)imidazo[1,2-a]pyrimidin-7-yl)phenyl)pyrrolidine-1-carboxamide]",12.6 to 20 µM,,0.126 to 10 µM
"CC1(C)COCCN1c1cnc2nc(-c3cc(NC(=O)N4CCCC4)ccc3F)ccn12 [Example 42, N-(3-(3-(3,3-dimethylmorpholino)imidazo[1,2-a]pyrimidin-7-yl)-4-fluorophenyl)pyrrolidine-1-carboxamide]",0.251 to 10 µM,,0.126 to 10 µM
C[C@@H]1CCN(C(=O)Nc2ccc(F)c(-c3ccn4c(N5CCOCC5)cnc4n3)c2)C1 [Example 34],0.251 to 10 µM,,0.126 to 10 µM
"O=C(Nc1ccc(F)c(-c2ccn3c(N4CCCOCC4)cnc3n2)c1)N1CCCC1 [Example 22, N-(3-(3-(1,4-oxazepan-4-yl)imidazo[1,2-a]pyrimidin-7-yl)-4-fluorophenyl)pyrrolidine-1-carboxamide]",0.251 to 10 µM,,0.126 to 10 µM
"C[C@H]1CN(c2cnc3nc(-c4cc(NC(=O)N5CCCC5)ccc4F)ccn23)CCO1 [Example 40, (S)—N-(4-fluoro-3-(3-(2-methylmorpholino)imidazo[1,2-a]pyrimidin-7-yl)phenyl)pyrrolidine-1-carboxamide]",0.251 to 10 µM,,0.126 to 10 µM
"CC1CN(c2cnc3nc(-c4cc(NC(=O)N5CCCC5)ccc4F)ccn23)CCO1 (centres unmarked) [Example 29, N-(4-fluoro-3-(3-(2-methylmorpholino)imidazo[1,2-a]pyrimidin-7-yl)phenyl)pyrrolidine-1-carboxamide]",0.251 to 10 µM,,0.126 to 10 µM
"CC1COCCN1c1cnc2nc(-c3cc(NC(=O)N4CCCC4)ccc3F)ccn12 (centres unmarked) [Example 31, N-(4-fluoro-3-(3-(3-methylmorpholino)imidazo[1,2-a]pyrimidin-7-yl)phenyl)pyrrolidine-1-carboxamide]",0.251 to 10 µM,,0.126 to 10 µM
